According to patent publication US20210196720A1 (UROVANT SCIENCES GMBH, priority 2018, published 2021):
Values joined by “and” are separate entries in the source; they are usually repeats but may differ in a detail not shown here. Identical values can stand only once. Like-named read-outs stand apart in the source and are kept apart here.

Key:
CYP2D6 = CYP2D6 (Homo sapiens, UniProt P10635); conditions: Rutman et al. 2019; cited from earlier work
[1] = Phase 2b OAB study, cardiovascular safety (HR, SBP, DBP, orthostatic AEs); assay type: in vivo, human
Description: None led to discontinuation. The overall incidence of orthostatic symptoms was low.
Small differences in the percent of subjects exceeding categorical heart rate and blood pressure thresholds for vibegron were similar to those in the tolterodine arm.

[2] = Renal impairment PK, single 100 mg; parameters: AUC0-inf GMR vs healthy / Cmax GMR vs healthy: unit not given beside the values;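 note: pharmacokinetic parameters in patients with renal impairment of differing severity, statistically compared against matched healthy subjects as controls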
[3] = Aqueous vs non-aqueous tablet bioequivalence, 50 mg; assay type: in vivo, human
Description: An open-label, single-dose, randomized, two-period, two-treatment, two-sequence, crossover Phase 1 study evaluated the relative bioequivalence of two types of tablets with slightly different composition: aqueous tablet (test) and non-aqueous tablet (reference).

[4] = Moderate hepatic impairment PK, single 100 mg; assay type: in vivo, human; conditions: for half-life: read-out: Apparent terminal t1/2 (converted)
clinical = conditions: human, 100 mg
Description: The relationship between clearance and renal function was modeled using linear regression.

β3-AR [5] = biological target: T1, β3-AR (Homo sapiens, UniProt P13945); experiment: Adenylyl cyclase functional assay in CHO cells stably expressing human β3-AR; assay type: cell-based; parameters: expressed in transfected cells
T1 sequence (P13945 whole entry): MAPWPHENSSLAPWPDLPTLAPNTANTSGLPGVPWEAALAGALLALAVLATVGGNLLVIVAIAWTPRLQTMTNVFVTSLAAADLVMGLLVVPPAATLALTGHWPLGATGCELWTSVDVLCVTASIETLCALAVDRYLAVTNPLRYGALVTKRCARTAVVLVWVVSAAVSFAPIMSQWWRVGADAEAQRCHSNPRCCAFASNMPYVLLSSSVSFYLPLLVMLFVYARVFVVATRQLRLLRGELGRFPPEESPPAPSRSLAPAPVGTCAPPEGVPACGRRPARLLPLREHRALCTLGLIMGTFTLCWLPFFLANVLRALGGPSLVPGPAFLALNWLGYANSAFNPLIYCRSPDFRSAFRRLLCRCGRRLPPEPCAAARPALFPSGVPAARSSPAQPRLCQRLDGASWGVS
Procedure: The degree of activation relative to a proven full agonist (isoproterenol) was measured along with the compound EC50.

β2-AR = β2-AR (Homo sapiens, UniProt P07550); experiment: Competition binding assay, recombinant β2-AR
β2-AR, sequence (P07550 whole entry): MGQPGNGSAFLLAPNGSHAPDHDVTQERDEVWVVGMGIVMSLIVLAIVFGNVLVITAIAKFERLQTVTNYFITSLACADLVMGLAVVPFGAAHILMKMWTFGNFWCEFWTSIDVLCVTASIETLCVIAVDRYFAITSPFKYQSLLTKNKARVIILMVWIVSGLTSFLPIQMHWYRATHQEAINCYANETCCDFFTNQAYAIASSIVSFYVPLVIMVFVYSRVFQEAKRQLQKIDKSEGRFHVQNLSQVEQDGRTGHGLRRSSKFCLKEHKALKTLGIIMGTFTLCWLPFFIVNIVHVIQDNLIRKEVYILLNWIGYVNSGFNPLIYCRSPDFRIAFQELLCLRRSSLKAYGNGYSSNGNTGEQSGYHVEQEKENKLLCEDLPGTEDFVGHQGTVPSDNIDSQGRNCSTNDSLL

[6] = in vivo
CYP3A4 = CYP3A4 (Homo sapiens, UniProt P08684); experiment: In vitro CYP metabolism; assay type: in vitro ADME
CYP3A4, sequence (P08684 whole entry): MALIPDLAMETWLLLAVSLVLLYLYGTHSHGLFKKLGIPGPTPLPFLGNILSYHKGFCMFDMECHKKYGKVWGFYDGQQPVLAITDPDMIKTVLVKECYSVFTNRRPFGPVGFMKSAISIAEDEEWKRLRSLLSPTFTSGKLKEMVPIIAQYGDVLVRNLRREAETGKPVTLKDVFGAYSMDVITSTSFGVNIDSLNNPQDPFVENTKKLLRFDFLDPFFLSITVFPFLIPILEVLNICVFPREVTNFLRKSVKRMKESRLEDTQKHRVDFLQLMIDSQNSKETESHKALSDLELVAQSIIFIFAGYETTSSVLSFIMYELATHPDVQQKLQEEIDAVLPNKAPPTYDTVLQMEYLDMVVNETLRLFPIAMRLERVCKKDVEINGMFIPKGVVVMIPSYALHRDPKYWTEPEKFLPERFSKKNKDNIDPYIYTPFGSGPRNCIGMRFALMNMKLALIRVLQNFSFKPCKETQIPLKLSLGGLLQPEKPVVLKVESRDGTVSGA

β3-AR [7] = biological target: T1, β3-AR; experiment: biochemical
[8] = Phase 2b OAB study, trough concentrations; assay type: in vivo, human; conditions: OAB patients
[9] = Capsule vs tablet single-dose crossover PK, 150 mg, healthy males; assay type: in vivo; conditions: male, human, plasma, oral
Description: Tmax and the apparent terminal t1/2 were also similar between the two formulations.

[10] = Maximum MA4 heart rate, multiple-dose Phase 1 study, day 14; assay type: in vivo, human
Procedure: More intensive assessments of heart rate and blood pressure were performed in healthy volunteers in several Phase 1 studies. […] Doses ranged from 25 to 400 mg once daily for 7 to 28 days depending on the cohort. Least squares mean and 90% confidence intervals of maximum change from baseline in moving average of heart rate over 4 hours postdose (MA4 HR) are presented in Table 14.

[11] = Dose-Cmax and dose-AUC models / simulations for 75 mg; parameters: species or system human
Procedure: In order to contextualize PK parameters of a 75 mg dose, dose-Cmax and dose-AUC models were created using data from Phase 1 studies.

[12] = human, plasma, oral, 100 mg, healthy matched controls
[13] = human, plasma, oral, 100 mg, moderate hepatic impairment
[14] = 75 mg, log-log regression of multiple-dose exposures

CYP2D6, sequence (P10635 whole entry): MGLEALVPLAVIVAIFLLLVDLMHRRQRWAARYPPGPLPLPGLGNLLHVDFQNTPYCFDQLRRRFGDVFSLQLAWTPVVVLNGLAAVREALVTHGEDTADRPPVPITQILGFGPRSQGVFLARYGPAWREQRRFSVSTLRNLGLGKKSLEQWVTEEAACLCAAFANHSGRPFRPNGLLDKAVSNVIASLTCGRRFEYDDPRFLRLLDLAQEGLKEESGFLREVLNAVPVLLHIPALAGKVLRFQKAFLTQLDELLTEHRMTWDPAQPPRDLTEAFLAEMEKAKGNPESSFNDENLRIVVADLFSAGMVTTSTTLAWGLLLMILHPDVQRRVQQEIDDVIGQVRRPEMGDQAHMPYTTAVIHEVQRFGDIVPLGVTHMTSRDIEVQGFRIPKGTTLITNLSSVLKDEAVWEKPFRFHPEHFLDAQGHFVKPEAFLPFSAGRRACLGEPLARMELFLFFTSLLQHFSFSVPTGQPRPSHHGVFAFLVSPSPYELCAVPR

O=C(Nc1ccc(C[C@@H]2CC[C@H]([C@H](O)c3ccccc3)N2)cc1)[C@@H]1CCc2nccc(=O)n21 [Vibegron, (6S)-N-[4-[[(2S,5R)-5-[(R)-hydroxy(phenyl)methyl]pyrrolidin-2-yl]methyl]phenyl]-4-oxo-7,8-dihydro-6H-pyrrolo[1,2-a]pyrimidine-6-carboxamide]
CYP2D6 inhibition (CYP2D6): does not inhibit CYP2D6 | DBP change from baseline, mean (95% CI) max, week 1 to 8 ([1]; 3 mg): 5.03 (3.92, 6.15) mm Hg | DBP change from baseline, mean (95% CI), week 1 ([1]; 3 mg): −0.37 (−1.69, 0.95) mm Hg | HR change from baseline, mean (95% CI) maximum, week 1 to 8 ([1]; 3 mg): 5.57 (4.25, 6.90) bpm | HR change from baseline, mean (95% CI), week 1 ([1]; 3 mg): 0.36 (−0.90, 1.62) bpm | SBP change from baseline, mean (95% CI) maximum, week 1 to 8 ([1]; 3 mg): 7.14 (5.18, 9.10) mm Hg | SBP change from baseline, mean (95% CI), week 1 ([1]; 3 mg): −0.35 (−2.34, 1.65) mm Hg | DBP change from baseline, mean (95% CI) max, week 1 to 8 ([1]; 15 mg): 6.37 (5.20, 7.53) mm Hg | DBP change from baseline, mean (95% CI), week 1 ([1]; 15 mg): 0.03 (−1.52, 1.59) mm Hg | HR change from baseline, mean (95% CI) maximum, week 1 to 8 ([1]; 15 mg): 6.56 (5.20, 7.92) bpm | HR change from baseline, mean (95% CI), week 1 ([1]; 15 mg): 0.35 (−1.15, 1.85) bpm | SBP change from baseline, mean (95% CI) maximum, week 1 to 8 ([1]; 15 mg): 8.93 (7.18, 10.67) mm Hg | SBP change from baseline, mean (95% CI), week 1 ([1]; 15 mg): −0.34 (−2.46, 1.78) mm Hg | subjects with orthostatic related AEs ([1]; 15 mg): 0.3% | DBP change from baseline, mean (95% CI) max, week 1 to 8 ([1]; 50 mg): 4.19 (3.10, 5.29) mm Hg | DBP change from baseline, mean (95% CI), week 1 ([1]; 50 mg): −0.70 (−2.07, 0.67) mm Hg | HR change from baseline, mean (95% CI) maximum, week 1 to 8 ([1]; 50 mg): 5.49 (4.28, 6.69) bpm | HR change from baseline, mean (95% CI), week 1 ([1]; 50 mg): 0.29 (−0.88, 1.46) bpm | SBP change from baseline, mean (95% CI) maximum, week 1 to 8 ([1]; 50 mg): 7.01 (5.31, 8.70) mm Hg | SBP change from baseline, mean (95% CI), week 1 ([1]; 50 mg): −0.79 (−2.65, 1.08) mm Hg | SBP and DBP change, difference from placebo ([1]; 50 mg and 100 mg, week 1 and maximum over 8 weeks): < 1 mm Hg | DBP change from baseline, mean (95% CI) max, week 1 to 8 ([1]; 100 mg): 4.80 (3.88, 5.72) mm Hg | DBP change from baseline, mean (95% CI), week 1 ([1]; 100 mg): −0.69 (−1.72, 0.34) mm Hg | HR change from baseline, mean (95% CI) maximum, week 1 to 8 ([1]; 100 mg): 6.12 (5.10, 7.15) bpm | HR change from baseline, mean (95% CI), week 1 ([1]; 100 mg): 0.35 (−0.69, 1.38) bpm | SBP change from baseline, mean (95% CI) maximum, week 1 to 8 ([1]; 100 mg): 6.51 (5.09, 7.93) mm Hg | SBP change from baseline, mean (95% CI), week 1 ([1]; 100 mg): −0.77 (−2.22, 0.68) mm Hg | subjects with orthostatic related AEs ([1]; 100 mg): 1.1% | HR mean maximum change over 8 weeks, difference from placebo ([1]; in vivo): < 2 bpm | AUC(0-inf) ([2]; healthy matched controls): 1540 ng·h/mL | Apparent terminal t1/2 ([2]; healthy matched controls): 98.8 h | CL/F ([2]; healthy matched controls): 64.9 L/h | CLR ([2]; healthy matched controls): 10.4 L/h | Fe[urine]48 hr ([2]; healthy matched controls): 7.9% | AUC0-inf GMR vs healthy ([2]; mild renal impairment): 1.49 | AUC0-inf higher than healthy controls ([2]; mild renal impairment): 49% | AUC(0-inf) ([2]; mild renal impairment): 2290 ng·h/mL | Apparent terminal t1/2 ([2]; mild renal impairment): 96.2 h | CL/F ([2]; mild renal impairment): 43.6 L/h | CLR ([2]; mild renal impairment): 6.3 L/h | CLR reduction vs healthy controls ([2]; mild renal impairment): 39% | Cmax ([2]; mild renal impairment): 210 ng/mL | Cmax GMR vs healthy ([2]; mild renal impairment): 1.96 | Cmax higher than healthy controls ([2]; mild renal impairment): 96% | Fe[urine]48 hr ([2]; mild renal impairment): 8.5% | Tmax ([2]; mild renal impairment): 1.0 h | AUC0-inf GMR vs healthy ([2]; moderate renal impairment): 2.06 | AUC0-inf higher than healthy controls ([2]; moderate renal impairment): 106% | AUC(0-inf) ([2]; moderate renal impairment): 3170 ng·h/mL | Apparent terminal t1/2 ([2]; moderate renal impairment): 108 h | CL/F ([2]; moderate renal impairment): 31.5 L/h | CLR ([2]; moderate renal impairment): 3.6 L/h | CLR reduction vs healthy controls ([2]; moderate renal impairment): 65% | Cmax ([2]; moderate renal impairment): 180 ng/mL | Cmax GMR vs healthy ([2]; moderate renal impairment): 1.68 | Cmax higher than healthy controls ([2]; moderate renal impairment): 68% | Fe[urine]48 hr ([2]; moderate renal impairment): 5.5% | Tmax ([2]; moderate renal impairment): 1.3 h | mean increase in AUC vs normal renal function ([2]; moderate renal impairment): 1.6 fold | AUC0-inf GMR vs healthy ([2]; severe renal impairment): 1.83 | AUC0-inf higher than healthy controls ([2]; severe renal impairment): 83% | AUC(0-inf) ([2]; severe renal impairment): 2820 ng·h/mL | CL/F ([2]; severe renal impairment): 35.5 L/h | CLR ([2]; severe renal impairment): 1.9 L/h | CLR reduction vs healthy controls ([2]; severe renal impairment): 82% | Cmax GMR vs healthy ([2]; severe renal impairment): 1.42 | Cmax higher than healthy controls ([2]; severe renal impairment): 42% | Fe[urine]48 hr ([2]; severe renal impairment): 2.1% | Tmax ([2]; severe renal impairment): 0.5 h | AUC0-inf GMR test/reference ([3]; 50 mg): 100.2% | Cmax GMR test/reference ([3]; 50 mg): 107.7% | AUC(0-inf) ([3]; 50 mg test, aqueous tablet (PMFII)): 671 ng·h/mL | Cmax ([3]; human, plasma, po, 50 mg, 50 mg reference, non-aqueous tablet (PMF1)): 38 ng/mL | Cmax ([3]; human, plasma, po, 50 mg, 50 mg test, aqueous tablet (PMFII)): 41 ng/mL | AUC(0-inf) ([3]; human, plasma, po, 50 mg, read-out: AUC0-inf): 671 ng·h/mL | CL/F ([4]; healthy matched controls): 68.3 L/h | AUC(0-inf) [4, 12]: 1440 ng·h/mL | Cmax [4, 12]: 125 ng/mL | half-life [4, 12]: 92.5 h | AUC(0-inf) [4, 13]: 1820 ng·h/mL | Cmax [4, 13]: 168 ng/mL | Tmax [4, 13]: 1 h | half-life [4, 13]: 94.5 h | CL/F ([4]; moderate hepatic impairment): 56.0 L/h | Cmax (clinical; in vivo): 107 ng/mL | Cmax (clinical; plasma, oral): 152 ng/mL | half-life (clinical; plasma, oral): 131 h | EC50 (β3-AR [5]): 1.1 nM | EC50 (β3-AR [5]; 40% human serum): 1.7 nM | binding to β2-AR (β2-AR): does not bind | effect on QTc or blood pressure [6]: no clinically meaningful effect | CYP responsible for in vitro metabolism (CYP3A4): CYP3A4 is the predominant CYP responsible for in vitro metabolism | IC50 (β3-AR [7]): 193 nM | mean (±SD) Ctrough ([8]; 50 mg QD): 27.4 (±18.3) ng/mL | mean (±SD) Ctrough ([8]; 100 mg QD): 73.6 (±65.5) ng/mL | AUC(0-inf) ([9]; 1 × 150 mg capsule): 2840 ng·h/mL | Cmax ([9]; 1 × 150 mg capsule): 237 ng/mL | AUC(0-inf) ([9]; 3 × 50 mg tablets): 2660 ng·h/mL | Cmax ([9]; 3 × 50 mg tablets): 213 ng/mL | Maximum MA4 HR (LS mean) ([10]; 25 mg): 1.47 bpm | Maximum MA4 HR, difference from placebo ([10]; 25 mg): −1.60 bpm | Maximum MA4 HR (LS mean) ([10]; 50 mg): 1.50 bpm | Maximum MA4 HR, difference from placebo ([10]; 50 mg): −1.57 bpm | Maximum MA4 HR (LS mean) ([10]; 100 mg): 3.28 bpm | Maximum MA4 HR (LS mean) ([10]; 150 mg): 3.17 bpm | Maximum MA4 HR, difference from placebo ([10]; 150 mg): 0.10 bpm | Maximum MA4 HR (LS mean) ([10]; 200 mg): 5.67 bpm | Maximum MA4 HR, difference from placebo ([10]; 200 mg): 2.60 bpm | Maximum MA4 HR (LS mean) ([10]; 300 mg): 9.06 bpm | Maximum MA4 HR, difference from placebo ([10]; 300 mg): 5.98 bpm | Maximum MA4 HR (LS mean) ([10]; 400 mg): 10.33 bpm | Maximum MA4 HR, difference from placebo ([10]; 400 mg): 7.26 bpm | AUC of 75 mg lower than 200 mg single dose [11]: ~2 fold | AUC of 75 mg lower than 400 mg single dose [11]: ~6 fold | Cmax of 75 mg lower than 200 mg single dose [11]: approximately 3.3 fold | Cmax of 75 mg lower than 400 mg single dose [11]: ~9.2 fold | reduction in Cmax ([11]; 75 mg vs 100 mg): ~40% | calculated AUC (mean±SD) [11, 14]: 1140 ± 476 ng·h/mL | calculated Cmax (mean±SD) [11, 14]: 120 ± 74.7 ng/mL and 120 ng/mL | Cmax ([11]; 100 mg): 206 ng/mL | increase in Cmax ([11]; dose increase from 50 to 100 mg): ~3 fold
